Experimental data published in patent US20260137662A1, “CD11B AGONISTS FOR TREATMENT OF AUTOIMMUNE DISEASE” (Rush University Medical Center, priority 2022, published 2026).
Entries after “also recorded” stand apart in the source; their conditions may differ.

Tested on: humanized mouse model of SLE (SLE-NSG mice)
Assay: Humanized SLE mouse model (NSG mice engrafted with SLE patient PBMCs)
Assay type: in vivo
Description: NSG mice engrafted with healthy control or SLE PBMCs were subsequently treated with LA1 or vehicle and human dsDNA levels were measured after 4 weeks of treatment. Each dot represents a unique sample. Bars show mean +/−SEM (n=3-6).
NSG mice engrafted with healthy control or SLE PBMCs were subsequently treated with LA1 or vehicle and suPAR levels were measured after 4 weeks of treatment. Each dot represents a unique sample. Bars show mean +/−SEM (n=3-6). […]
NSG mice engrafted with healthy control or SLE PBMCs were subsequently treated with LA1 or vehicle and ACR was measured after 4 weeks of treatment. Each dot represents a unique sample. Bars show mean +/−SEM (n=3-6).
FIG. 14A illustrates alopecia in control mouse models (Ctrl), mice engrafted with heathy PBMCs (HC), humanized SLE models treated with vehicle (Veh), and humanized SLE models treated with LA1. […]
The efficacy of CD11b agonist LA1 as a therapeutic was studied using a generated humanized mouse model of SLE. To generate the humanized SLE model, immunocompromised NSG mice engrafted with peripheral blood mononuclear cells (PBMCs) from either SLE patients or from healthy human donors (control). 2.5×10^6 purified PBMCs were injected intravenously into NSG mice on day 0. The humanized mice were monitored daily for significant clinical signs of SLE (alopecia, skin lesions, weight loss & arthritis), morbidity and mortality. Body weights were recorded weekly and skin lesions were photographed and scored weekly.
A small sample of peripheral blood was drawn from the mice under general anesthesia 2, 4 and 6 wks post-humanization by penetrating the retro-orbital sinus in mice with a sterile Pasteur pipette. The blood sample was split for fluorescence-activated cell sorting (FACS) analysis and serum preparation. […] For serum, the whole blood was clotted at room temperature for 30 minutes, followed by a 10-minute centrifugation at 10,000 RPM. The red blood cell-free serum was transferred into micro-centrifuge tubes and stored at −80° C. until further analysis. Additionally, urine samples were collected weekly, transferred into a micro-centrifuge tube and stored at −80° for future analysis. Urine protein was measured using a sandwich ELISA specific for mouse albumin (Bethyl Laboratories, TX) and urinary creatinine was determined using the Creatinine Companion kit (Exocell, PA) according to manufacturer's protocol.
To test the efficacy of LA1 on humanized SLE mouse models, the generated SLE-NSG mice were treated with LA1 (2 mg/kg i.p. daily) starting at two weeks post administration of PBMCs and until experiment completion. Concentrations of human dsDNA, mouse suPAR, and IFNb were measured in NSG mice, NSG mice engrafted with PBMCs from a healthy donor, untreated SLE-NSG mice, SLE-NSG mice treated with a vehicle, and SLE-NSG mice treated with LA1.

[1] = LA1 2 mg/kg i.p. daily from two weeks post PBMCs, after 4 weeks of treatment, vs vehicle, 2 mg/kg
[2] = humanized SLE mice treated with LA1 vs vehicle

## O=C(O)c1ccc(-c2ccc(/C=C3\SC(=S)N(Cc4ccccc4)C3=O)o2)cc1 [LA1, (Z)-4-(5-((3-benzyl-4-oxo-2-thioxothiazolidin-5-ylidene)methyl)furan-2-yl)benzoic acid]
[1]
  concentration of IFNb in the serum: significantly reduced; also recorded: reduction
  concentration of anti-double stranded DNA antibodies (human dsDNA) in the serum: significantly reduced; also recorded: reduction
  concentration of suPAR in the serum: significantly reduced; also recorded: reduction
  urinary albumin creatinine ratios (ACR): significantly reduced; also recorded: reduction
[2]
  alopecia (nose area): significantly reduced; also recorded: reduces alopecia
  number of GR1-positive, CD11b-positive cells in spleens: reduction in number
  number of neutrophils infiltrating in the kidney (H&E staining): reduction in number
